Data from PMC10584170, “Machine learning-based phenotypic imaging to characterise the targetable biology of Plasmodium falciparum male gametocytes for the development of transmission-blocking antimalarials” (PLOS Pathogens, 2023).
Read-outs that look alike come from different tables or passages of the source. Blank lines part the entries; values can stand above or below the compound they belong to.

Legend:
[1] = tested on: P. falciparum female gametocytes; assay: P. falciparum Dual Gamete Formation Assay (PfDGFA), female readout (Pfs25-positive female gametes); assay type: cell-based, Plasmodium falciparum NF54; details: for Selectivity ratio F: HepG2 Tox50 versus female IC50; for inhibition at 2 µM / IC50: Plasmodium falciparum; for inhibition at 2 µM: 24h preincubation with gametocytes; for IC50: PfDGFA, 24 h incubation with gametocytes before induction, female gamete readout, read-out: Female IC50
Method: (§1) P. falciparum NF54 (originally isolated from an imported malaria case in the Netherlands in the 1980s; BEI Resources, cat. No. MRA-1000) strain asexual parasites were maintained between 0.3–5% parasitaemia by regular passage in complete culture medium (RPMI supplemented with 25 mM HEPES, 50 μg ml^−1 hypoxanthine, 4.8 g l^−1 NaHCO3, 2mM L-glutamine, 5% pooled type AB serum, 0.5% Albumax II (Gibco)) at 4% haematocrit in washed whole blood (National Blood and Transfusion Service or Centro de Transfusiones de la Comunidad de Madrid CTCM) under a 1% O2/3% CO2/96% N2 environment. Gametocytes were induced by seeding culture flasks at 2% parasitaemia/4% haematocrit and subjecting them to daily medium changes for 14 days whilst maintaining a temperature of 37°C at all times. On Day 14, the maturity of gametocytes was assessed by quantifying male gametogenesis (exflagellation). A 20 μl sample of gametocyte culture was mixed with equal volume of ookinete medium (complete culture medium supplemented with 0.1 μM xanthurenic acid) at room temperature and transferred to a haemocytometer. After 20 min at room temperature, exflagellation was accurately quantified as described in Delves et al. 2016 [17].
(§2) The Pf DGFA was performed as described in Delves et al. 2016 [17]. […] Plates were then incubated for 24 h at 37°C in a humidified box under a 1% O2/3% CO2/96% N2 gas mix. Gametogenesis was triggered by addition of 10 μl per well of ookinete medium + 0.27 μg ml^-1 Cy3-labelled anti-Pfs25 antibody. Plates were incubated on a metal block at 4°C for 4 min to ensure even cooling, then 28°C for a further 4 min. Exflagellation was recorded by capturing 10 frames over 1 s under brightfield illumination using a x4 objective with a 1.5x zoom (effectively x6) attached to an automated Nikon Ti fluorescence microscope. After recording exflagellation, plates were incubated for a further 24 h in the dark at 28°C to ensure maximal expression of Pfs25 by female gametes. The plates were then returned to the microscope and female gametes imaged at x6 using fluorescence microscopy.
(§3) Exflagellation centres and female gametes were quantified using custom image analysis pipelines developed within ICY Bioimage Analysis (https://icy.bioimageanalysis.org/).

[2] = tested on: P. falciparum male gametocytes; assay: P. falciparum Dual Gamete Formation Assay (PfDGFA), male readout (exflagellation); assay type: cell-based, Plasmodium falciparum NF54; details: for Selectivity Ratio M: HepG2 Tox50 versus male IC50; for inhibition at 2 µM / IC50: Plasmodium falciparum; for inhibition at 2 µM: 24h preincubation with gametocytes; for IC50: PfDGFA, 24 h incubation with gametocytes before induction, exflagellation readout, read-out: Male IC50; for Activity: hit = >50% inhibition in male or female readout in at least 3 replicates, 0 = no class assigned
Method: as §1, §2, §3

[3] = PfDGFA at 2µM, 24h preincubation with gametocytes prior to induction of gametogenesis, replicate R1
[4] = PfDGFA at 2µM, 24h preincubation with gametocytes prior to induction of gametogenesis, replicate R3
[5] = PfDGFA at 2µM, 24h preincubation with gametocytes prior to induction of gametogenesis, replicate R4
[6] = PfDGFA at 2µM, 24h preincubation, average of replicates
[7] = 2µM, 24h preincubation with gametocytes prior to induction of gametogenesis, average of replicates
[8] = 2µM, 24h preincubation with gametocytes prior to induction of gametogenesis, replicate R1
[9] = 2µM, 24h preincubation with gametocytes prior to induction of gametogenesis, replicate R3
[10] = 2µM, 24h preincubation with gametocytes prior to induction of gametogenesis, replicate R4
[11] = 2µM, 24h preincubation, hits selected on >50% inhibition in the female readout across replicates
[12] = 2µM, 24h preincubation, hits selected on >50% inhibition in the male readout across replicates
[13] = PfDGFA at 2µM, 24h preincubation
[14] = 2µM, 24h preincubation, number of replicates with >50% inhibition in the female readout
[15] = 2µM, 24h preincubation, number of replicates with >50% inhibition in the male readout
[16] = PfDGFA at 2µM, average of replicates, read-out: Average inhibition female (%)
[17] = PfDGFA at 2µM, replicate R1, read-out: % inhibition female (individual replicates) R1
[18] = PfDGFA at 2µM, replicate R2, read-out: % inhibition female (individual replicates) R2
[19] = PfDGFA at 2µM, replicate R3, read-out: % inhibition female (individual replicates) R3
[20] = PfDGFA at 2µM, replicate R4, read-out: % inhibition female (individual replicates) R4
[21] = number of replicates with >50% inhibition in the female readout, 2µM
[22] = PfDGFA at 2µM, average of replicates, read-out: Average inhibition male (%)
[23] = PfDGFA at 2µM, replicate R1, read-out: % inhibition male (individual replicates) R1
[24] = PfDGFA at 2µM, replicate R2, read-out: % inhibition male (individual replicates) R2
[25] = PfDGFA at 2µM, replicate R3, read-out: % inhibition male (individual replicates) R3
[26] = PfDGFA at 2µM, replicate R4, read-out: % inhibition male (individual replicates) R4
[27] = number of replicates with >50% inhibition in the male readout, 2µM

SMILES: CCOC(=O)c1cc(C(=O)OC)c2ccccn12 [TCMDC-124299]
% inhibition female (individual replicates) R1 [1, 3]: 6.3%
% inhibition female (individual replicates) R3 [1, 4]: -21.8%
% inhibition female (individual replicates) R4 [1, 5]: 0.07%
Average inhibition female (%) [1, 6]: -2.7%
% inhibition male (individual replicates) R1 [2, 3]: 15.7%
% inhibition male (individual replicates) R3 [2, 4]: -23.4%
% inhibition male (individual replicates) R4 [2, 5]: -23.1%
Average inhibition male (%) [2, 6]: -9.0%

SMILES: [O-][S+]1c2ccccc2Sc2ccccc21 [TCMDC-124300]
% inhibition female (individual replicates) R1 [1, 3]: 9.4%
% inhibition female (individual replicates) R3 [1, 4]: -8.0%
% inhibition female (individual replicates) R4 [1, 5]: -1.0%
Average inhibition female (%) [1, 6]: -3.0%
% inhibition male (individual replicates) R1 [2, 3]: 13.3%
% inhibition male (individual replicates) R3 [2, 4]: 4.0%
% inhibition male (individual replicates) R4 [2, 5]: -37.1%
Average inhibition male (%) [2, 6]: -9.5%

IC50 [1]: 7560 nM
IC50 [2]: 370 nM
SMILES: CCCCNS(=O)(=O)c1ccc(NC(=O)c2cc([N+](=O)[O-])ccc2Cl)cc1 [TCMDC-124345]
Selectivity ratio F [1]: 13.22
inhibition at 2 µM ([1]; 2µM, average of replicates, read-out: Average inhibition female (%)): 20%
inhibition at 2 µM ([1]; 2µM, replicate R1, read-out: % inhibition female (individual replicates) R1): 27.9%
inhibition at 2 µM ([1]; 2µM, replicate R2, read-out: % inhibition female (individual replicates) R2): 30.3%
inhibition at 2 µM ([1]; 2µM, replicate R3, read-out: % inhibition female (individual replicates) R3): 6.6%
inhibition at 2 µM ([1]; 2µM, replicate R4, read-out: % inhibition female (individual replicates) R4): 15%
Selectivity Ratio M [2]: 267.48
inhibition at 2 µM ([2]; 2µM, average of replicates, read-out: Average inhibition male (%)): 100%
inhibition at 2 µM ([2]; 2µM, replicate R1, read-out: % inhibition male (individual replicates) R1): 101%
inhibition at 2 µM ([2]; 2µM, replicate R2, read-out: % inhibition male (individual replicates) R2): 102%
inhibition at 2 µM ([2]; 2µM, replicate R3, read-out: % inhibition male (individual replicates) R3): 100%
inhibition at 2 µM ([2]; 2µM, replicate R4, read-out: % inhibition male (individual replicates) R4): 98.2%

SMILES: CC(=O)Nc1ccc(Nc2c3ccccc3nc3ccccc23)cc1 [TCMDC-124356]
Average inhibition female (%) [1, 7]: 14.4%
% inhibition female (individual replicates) R1 [1, 8]: 47.3%
% inhibition female (individual replicates) R3 [1, 9]: 8.8%
% inhibition female (individual replicates) R4 [1, 10]: 12.0%
HitlevelF [1, 11]: 0
Average inhibition male (%) [2, 7]: 30.9%
% inhibition male (individual replicates) R1 [2, 8]: 50.9%
% inhibition male (individual replicates) R4 [2, 10]: -15.9%
HitlevelM [2, 12]: 2
Activity [2, 13]: 0

SMILES: CC(C)(C)Nc1cc(C2CC2)nc(-c2ccccn2)n1 [TCMDC-124453]
Average inhibition female (%) [1, 7]: 32.5%
% inhibition female (individual replicates) R1 [1, 8]: 36.3%
% inhibition female (individual replicates) R3 [1, 9]: 27.2%
% inhibition female (individual replicates) R4 [1, 10]: 34.1%
HitlevelF [1, 14]: 0
Average inhibition male (%) [2, 7]: 8.7%
% inhibition male (individual replicates) R1 [2, 8]: 15.7%
% inhibition male (individual replicates) R3 [2, 9]: 8.7%
% inhibition male (individual replicates) R4 [2, 10]: 17.6%
HitlevelM [2, 15]: 0

SMILES: Cc1ccc(-c2nnc3c4ccccc4c(C)nn23)cc1S(=O)(=O)N1CCN(CCO)CC1 [TCMDC-124482]
% inhibition female (individual replicates) R1 [1, 3]: 11.9%
% inhibition female (individual replicates) R3 [1, 4]: -40.2%
% inhibition female (individual replicates) R4 [1, 5]: 14.7%
Average inhibition female (%) [1, 6]: -3.6%
% inhibition male (individual replicates) R1 [2, 3]: 14.3%
% inhibition male (individual replicates) R3 [2, 4]: -2.0%
% inhibition male (individual replicates) R4 [2, 5]: 34.9%
Average inhibition male (%) [2, 6]: 14.9%

IC50 [1]: 560 nM
IC50 [2]: 720 nM
SMILES: Cn1c(Sc2ncnc3sccc23)nc2ccccc21 [TCMDC-124514]
Selectivity ratio F [1]: 179.15
inhibition at 2 µM [1, 16]: 56.9%
inhibition at 2 µM [1, 17]: 48.2%
inhibition at 2 µM [1, 18]: 73.8%
inhibition at 2 µM [1, 19]: 37.5%
inhibition at 2 µM [1, 20]: 68.1%
HitlevelF [1, 21]: 2
Selectivity Ratio M [2]: 138.65
inhibition at 2 µM [2, 22]: 74.4%
inhibition at 2 µM [2, 23]: 82.1%
inhibition at 2 µM [2, 24]: 75.9%
inhibition at 2 µM [2, 25]: 86.7%
inhibition at 2 µM [2, 26]: 52.9%
HitlevelM [2, 27]: 4

IC50 [1]: > 10000 nM
IC50 [2]: 7710 nM
SMILES: O=C(NC1CCN(Cc2ccccc2)CC1)c1cc(C(=O)NC2CCN(Cc3ccccc3)CC2)cc(C(=O)NC2CCN(Cc3ccccc3)CC2)c1 [TCMDC-124568]
Selectivity ratio F [1]: 10.00
inhibition at 2 µM [1, 16]: 37.6%
inhibition at 2 µM [1, 17]: 24.6%
inhibition at 2 µM [1, 18]: 60.5%
inhibition at 2 µM [1, 19]: 22.2%
inhibition at 2 µM [1, 20]: 43.3%
HitlevelF [1, 21]: 1
Selectivity Ratio M [2]: 12.97
inhibition at 2 µM [2, 22]: 80%
inhibition at 2 µM [2, 23]: 85%
inhibition at 2 µM [2, 24]: 82%
inhibition at 2 µM [2, 25]: 68.9%
inhibition at 2 µM [2, 26]: 84.2%
HitlevelM [2, 27]: 4

SMILES: COc1cc(C(=O)NC2CCc3ccccc32)cc(Cl)c1OC (stereo not shown) [TCMDC-124601]
% inhibition female (individual replicates) R1 [1, 3]: 1.9%
% inhibition female (individual replicates) R3 [1, 4]: -2.4%
% inhibition female (individual replicates) R4 [1, 5]: 1.9%
Average inhibition female (%) [1, 6]: -0.8%
% inhibition male (individual replicates) R1 [2, 3]: 0.65%
% inhibition male (individual replicates) R4 [2, 5]: 7.9%
Average inhibition male (%) [2, 6]: 1.1%

SMILES: CN1CCC(N2CCC(Oc3cccc(C(=O)NCCCC4CCCC4)c3)CC2)CC1 [TCMDC-124677]
Average inhibition female (%) [1, 7]: 28.5%
% inhibition female (individual replicates) R1 [1, 8]: 33.3%
% inhibition female (individual replicates) R3 [1, 9]: 20.8%
% inhibition female (individual replicates) R4 [1, 10]: 15.0%
HitlevelF [1, 14]: 0
Average inhibition male (%) [2, 7]: 46.8%
% inhibition male (individual replicates) R1 [2, 8]: 55.2%
% inhibition male (individual replicates) R3 [2, 9]: 20.7%
% inhibition male (individual replicates) R4 [2, 10]: 57.6%
HitlevelM [2, 15]: 3

SMILES: Cc1ccc(-n2cc(CNCC3CCN(CCO)CC3)c(-c3ccc(F)cc3)n2)cc1 [TCMDC-124689]
Average inhibition female (%) [1, 7]: 19.9%
% inhibition female (individual replicates) R1 [1, 8]: 20.1%
% inhibition female (individual replicates) R3 [1, 9]: 19.4%
% inhibition female (individual replicates) R4 [1, 10]: 10.0%
HitlevelF [1, 14]: 0
Average inhibition male (%) [2, 7]: 53.6%
% inhibition male (individual replicates) R1 [2, 8]: 49.0%
% inhibition male (individual replicates) R4 [2, 10]: 58.1%
HitlevelM [2, 15]: 2

SMILES: O=C(c1ccc([N+](=O)[O-])o1)N1CCN(c2nc3c(F)cc(F)cc3s2)CC1 [TCMDC-125149]
Average inhibition female (%) [1, 7]: 6.5%
% inhibition female (individual replicates) R1 [1, 8]: 10.3%
% inhibition female (individual replicates) R3 [1, 9]: -4.5%
% inhibition female (individual replicates) R4 [1, 10]: 0.07%
HitlevelF [1, 11]: 0
Average inhibition male (%) [2, 7]: 6.8%
% inhibition male (individual replicates) R1 [2, 8]: 35.5%
% inhibition male (individual replicates) R3 [2, 9]: -37.1%
% inhibition male (individual replicates) R4 [2, 10]: -11.8%
HitlevelM [2, 12]: 0
Activity [2, 13]: 0
